Tests used:
Test in all cases: HPLC product formation, Michaelis-Menten
Format in all cases: biochemical, Sarcandra glabra
SgRAS = system: T1, SgRAS; details: 0.1 M potassium phosphate, exact conditions in Table S15
T1 construct: full length, 449 residues, 49348 Da
Text: HPLC product formation, Michaelis-Menten on SgRAS

SgHST = system: T2, SgHST; details: 0.1 M potassium phosphate, exact conditions in Table S12
T2 construct: full length, 436 residues, 48424 Da
Text: HPLC product formation, Michaelis-Menten on SgHST

SgHQT1 = system: T3, SgHQT1; details: 0.1 M potassium phosphate, exact conditions in Table S13
T3 construct: full length, 427 residues, 47772 Da
Text: HPLC product formation, Michaelis-Menten on SgHQT1

SgHQT2 = system: T4, SgHQT2; details: 0.1 M potassium phosphate, exact conditions in Table S14
T4 construct: full length (5'-RACE), 441 residues, 48847 Da
Text: HPLC product formation, Michaelis-Menten on SgHQT2

[1] = with 4-hydroxyphenyllactic acid (pHPL)

O=C(O)[C@H](O)Cc1ccc(O)c(O)c1
Km (SgRAS; with p-coumaroyl-CoA): 867 ± 105 µM

Nc1c(O)cccc1C(=O)O [3‐Hydroxyanthranilic acid, 2‐amino‐3‐hydroxybenzoic]
Km (SgHST; with p-coumaroyl-CoA): 238 ± 19.6 µM

O=C(O)C(O)Cc1ccc(O)cc1 (stereo not shown) [4‐hydroxyphenyllactic acid]
Km (SgRAS; with p-coumaroyl-CoA): 544 ± 47.4 µM

CC(C)(COP(=O)(O)OP(=O)(O)OC[C@H]1O[C@@H](n2cnc3c(N)ncnc32)[C@H](O)[C@@H]1OP(=O)(O)O)[C@@H](O)C(=O)NCCC(=O)NCCSC(=O)/C=C/c1ccc(O)c(O)c1 [Caffeoyl‐CoA]
Km (SgRAS; [1]): 57.2 ± 15.7 µM | Km (SgHQT1; with quinic acid): 9.3 ± 2.5 µM | Km (SgHST; with shikimic acid): 21.4 ± 6.8 µM | Km (SgHQT2; with quinic acid): 213 ± 53.5 µM

O=C(O)[C@]1(O)C[C@@H](O)[C@@H](O)[C@H](O)C1 [Quinic acid]
Km (SgHQT1; with p-coumaroyl-CoA): 5520 ± 713 µM | K m (μM) (SgHST; with p-coumaroyl-CoA): 16 740.0 ± 1833.0 μM | Km (SgHQT2; with p-coumaroyl-CoA): 11100 ± 1560 µM

O=C(O)C1=C[C@@H](O)[C@@H](O)[C@H](O)C1 [Shikimic acid]
K m (μM) (SgHQT1; with p-coumaroyl-CoA, n = 3 ± SD): 85 440.0 ± 18 700.0 μM | Km (SgHST; with p-coumaroyl-CoA): 1220 ± 153 µM

CC(C)(COP(=O)(O)OP(=O)(O)OC[C@H]1O[C@@H](n2cnc3c(N)ncnc32)[C@H](O)[C@@H]1OP(=O)(O)O)[C@@H](O)C(=O)NCCC(=O)NCCSC(=O)/C=C/c1ccc(O)cc1 [p‐Coumaroyl‐CoA]
Km (SgRAS; [1]): 14.6 ± 1.7 µM | Km (SgHQT1; with quinic acid): 19.9 ± 3.4 µM | Km (SgHST; with shikimic acid): 17.4 ± 4.9 µM | Km (SgHQT2; with quinic acid): 82.3 ± 14.8 µM
